Patent US10392368B2, “Pyrazolo and triazolo bicyclic compounds as JAK kinase inhibitors” (THERAVANCE BIOPHARMA R&D IP, LLC, priority 2017, dated 2019)
Like-named read-outs stand apart in the source and are kept apart here.

Tests used:
[1] = target: T1, JAK1 (Homo sapiens, UniProt P23458); assay: Biochemical JAK1 kinase assay (LanthaScreen); conditions: for Ki: read-out: JAK 1 (pKi) (converted)
T1 construct: GST; purchased Life Technologies
In short: (§1)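 Compounds were preincubated with the GST-tagged kinase and GFP-labelled STAT1 peptide for one hour before ATP initiated a one-hour reaction at ambient temperature. Phosphorylation was quantified by TR-FRET with a Tb-labelled pTyr701 antibody. Ki values were derived from IC50 using Cheng-Prusoff.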

[2] = target: T2, JAK2 (Homo sapiens, UniProt O60674); assay: Biochemical JAK2 kinase assay (LanthaScreen); conditions: for Ki: read-out: JAK 2 (pKi) (converted)
T2 construct: GST; purchased Life Technologies
T2 sequence (O60674 whole entry): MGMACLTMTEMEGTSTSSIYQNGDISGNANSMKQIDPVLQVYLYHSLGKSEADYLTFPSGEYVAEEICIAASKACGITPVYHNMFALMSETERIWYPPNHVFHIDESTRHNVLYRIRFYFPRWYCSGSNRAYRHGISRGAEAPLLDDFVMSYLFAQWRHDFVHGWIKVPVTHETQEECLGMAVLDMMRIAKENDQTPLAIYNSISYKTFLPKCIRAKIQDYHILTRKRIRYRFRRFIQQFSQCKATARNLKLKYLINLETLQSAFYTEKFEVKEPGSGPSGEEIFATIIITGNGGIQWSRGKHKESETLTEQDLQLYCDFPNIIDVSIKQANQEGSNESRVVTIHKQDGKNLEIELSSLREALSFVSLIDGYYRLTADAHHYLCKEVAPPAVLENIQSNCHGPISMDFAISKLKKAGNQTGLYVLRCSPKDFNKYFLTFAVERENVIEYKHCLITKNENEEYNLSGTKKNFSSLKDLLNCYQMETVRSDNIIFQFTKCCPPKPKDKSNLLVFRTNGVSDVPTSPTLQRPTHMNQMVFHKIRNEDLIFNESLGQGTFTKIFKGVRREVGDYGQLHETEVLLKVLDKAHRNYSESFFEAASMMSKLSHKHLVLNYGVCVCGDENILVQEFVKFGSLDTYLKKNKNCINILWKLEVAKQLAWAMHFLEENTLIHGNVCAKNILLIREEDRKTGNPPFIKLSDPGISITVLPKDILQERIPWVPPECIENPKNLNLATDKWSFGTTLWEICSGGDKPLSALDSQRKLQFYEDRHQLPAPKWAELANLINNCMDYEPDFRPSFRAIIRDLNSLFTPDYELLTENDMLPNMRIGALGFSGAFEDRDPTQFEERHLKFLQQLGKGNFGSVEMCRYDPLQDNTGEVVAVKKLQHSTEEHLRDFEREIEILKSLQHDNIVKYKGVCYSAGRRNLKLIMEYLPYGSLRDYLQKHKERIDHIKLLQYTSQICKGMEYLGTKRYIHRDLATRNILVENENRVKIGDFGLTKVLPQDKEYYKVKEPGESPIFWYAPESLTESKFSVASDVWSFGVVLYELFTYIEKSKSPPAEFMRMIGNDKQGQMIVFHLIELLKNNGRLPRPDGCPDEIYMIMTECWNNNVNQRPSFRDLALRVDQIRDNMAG
In short: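 pKi values derive from pIC50 via Cheng-Prusoff, with IC50 from a 4-parameter fit of percent-inhibition TR-FRET data using Tb-anti-pSTAT1 (pTyr701) detection. Compound, GST-JAK2 and GFP-STAT1 substrate were pre-incubated 1 h, then ATP started a 1 h ambient reaction (HEPES pH 7.5, 10 mM MgCl2, 1% DMSO).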

[3] = tested on: IL-2 stimulated pSTAT5 in Tall-1 T cells; assay: Cellular JAK3 potency assay: inhibition of IL-2 stimulated pSTAT5 in Tall-1 T cells; type: cell-based, human; conditions: for IC50: Homo sapiens, read-out: Tall-1 (pIC50) (converted)
In short: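 Inhibition of IL-2-induced pSTAT5 was quantified by AlphaLisa in Tall-1 cell lysates. Compound exposure lasted 1 h before 30 min stimulation with 300 ng/ml IL-2 final.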

[4] = target: T3, JAK3 (Homo sapiens, UniProt P52333); assay: Biochemical JAK3 kinase assay (LanthaScreen); set-up: GST; purchased Life Technologies; conditions: for Ki: read-out: JAK 3 (pKi) (converted)
T3 sequence (P52333 1-1124): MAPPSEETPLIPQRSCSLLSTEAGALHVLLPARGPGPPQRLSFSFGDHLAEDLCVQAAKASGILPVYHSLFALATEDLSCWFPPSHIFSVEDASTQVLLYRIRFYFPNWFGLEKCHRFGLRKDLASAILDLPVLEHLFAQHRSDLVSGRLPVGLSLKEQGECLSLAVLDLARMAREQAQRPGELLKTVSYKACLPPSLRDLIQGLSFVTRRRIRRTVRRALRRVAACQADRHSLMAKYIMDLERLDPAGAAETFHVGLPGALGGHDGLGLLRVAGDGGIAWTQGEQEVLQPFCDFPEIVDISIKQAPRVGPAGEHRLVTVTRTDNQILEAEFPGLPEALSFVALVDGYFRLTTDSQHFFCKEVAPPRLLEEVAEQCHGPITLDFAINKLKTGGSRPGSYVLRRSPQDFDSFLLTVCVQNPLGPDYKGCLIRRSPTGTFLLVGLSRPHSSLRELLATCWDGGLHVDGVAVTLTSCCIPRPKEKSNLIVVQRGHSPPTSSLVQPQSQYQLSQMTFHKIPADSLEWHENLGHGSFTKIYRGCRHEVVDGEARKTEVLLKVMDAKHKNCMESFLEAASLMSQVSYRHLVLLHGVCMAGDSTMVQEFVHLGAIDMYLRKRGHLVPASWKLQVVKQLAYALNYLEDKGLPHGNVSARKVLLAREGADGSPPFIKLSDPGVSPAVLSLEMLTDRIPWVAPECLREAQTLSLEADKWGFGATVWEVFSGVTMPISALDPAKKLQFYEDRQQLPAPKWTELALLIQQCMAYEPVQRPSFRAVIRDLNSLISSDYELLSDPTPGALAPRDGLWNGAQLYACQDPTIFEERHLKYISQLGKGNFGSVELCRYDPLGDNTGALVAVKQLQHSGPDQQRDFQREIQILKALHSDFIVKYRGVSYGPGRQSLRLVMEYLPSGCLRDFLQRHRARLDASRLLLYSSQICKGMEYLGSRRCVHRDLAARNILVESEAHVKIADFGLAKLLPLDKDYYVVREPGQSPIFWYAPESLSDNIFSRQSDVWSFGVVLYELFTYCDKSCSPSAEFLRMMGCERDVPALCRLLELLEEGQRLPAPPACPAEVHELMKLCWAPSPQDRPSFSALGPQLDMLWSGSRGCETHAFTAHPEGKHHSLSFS
In short: as §1

[5] = target: T4, Tyk2 (Homo sapiens, UniProt P29597); assay: Biochemical Tyk2 kinase assay (LanthaScreen); conditions: for Ki: read-out: Tyk 2 (pKi) (converted)
T4 construct: GST; purchased Life Technologies
T4 sequence (P29597 whole entry): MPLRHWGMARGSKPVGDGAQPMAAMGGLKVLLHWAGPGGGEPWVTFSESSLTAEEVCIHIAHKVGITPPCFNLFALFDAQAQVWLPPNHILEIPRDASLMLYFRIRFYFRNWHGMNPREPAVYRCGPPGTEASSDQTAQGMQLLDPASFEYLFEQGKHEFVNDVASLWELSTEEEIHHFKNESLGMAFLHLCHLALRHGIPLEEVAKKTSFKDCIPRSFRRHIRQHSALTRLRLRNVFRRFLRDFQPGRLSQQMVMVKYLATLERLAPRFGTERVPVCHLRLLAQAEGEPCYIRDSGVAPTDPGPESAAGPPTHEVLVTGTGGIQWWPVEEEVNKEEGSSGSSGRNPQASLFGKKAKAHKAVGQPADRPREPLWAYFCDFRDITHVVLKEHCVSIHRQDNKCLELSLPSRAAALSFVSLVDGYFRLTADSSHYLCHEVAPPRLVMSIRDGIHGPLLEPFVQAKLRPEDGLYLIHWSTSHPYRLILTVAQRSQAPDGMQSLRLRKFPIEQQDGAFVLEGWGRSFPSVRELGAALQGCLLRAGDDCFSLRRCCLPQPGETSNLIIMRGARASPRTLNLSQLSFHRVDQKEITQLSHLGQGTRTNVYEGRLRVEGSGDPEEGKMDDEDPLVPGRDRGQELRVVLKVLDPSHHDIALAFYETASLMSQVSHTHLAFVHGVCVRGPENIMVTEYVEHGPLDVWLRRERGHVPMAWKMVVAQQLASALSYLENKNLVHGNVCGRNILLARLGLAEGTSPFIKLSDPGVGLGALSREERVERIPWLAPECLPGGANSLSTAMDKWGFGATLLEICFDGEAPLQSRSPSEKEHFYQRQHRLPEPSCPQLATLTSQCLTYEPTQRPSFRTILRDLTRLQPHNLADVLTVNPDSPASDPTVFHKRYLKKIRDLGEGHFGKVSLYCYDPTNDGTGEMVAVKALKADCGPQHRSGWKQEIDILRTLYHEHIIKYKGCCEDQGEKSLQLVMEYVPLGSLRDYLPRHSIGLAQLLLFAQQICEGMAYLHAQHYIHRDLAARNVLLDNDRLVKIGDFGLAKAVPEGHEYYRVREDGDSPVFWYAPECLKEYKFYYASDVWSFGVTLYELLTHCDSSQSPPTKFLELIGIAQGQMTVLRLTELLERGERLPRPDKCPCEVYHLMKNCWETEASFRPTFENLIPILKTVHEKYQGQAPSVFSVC
In short: as §1

[6] = IL-2 stimulated pSTAT5 in Tall-1 T cells
[7] = selectivity: difference of pKi JAK3 and pKi JAK1
[8] = TALL-1, IL-2 stimulated pSTAT5 in Tall-1 T cells
[9] = selectivity JAK3 over JAK1, difference of pKi
[10] = IL-2 stimulated pSTAT5, Tall-1 T cells

T1 sequence (P23458 whole entry): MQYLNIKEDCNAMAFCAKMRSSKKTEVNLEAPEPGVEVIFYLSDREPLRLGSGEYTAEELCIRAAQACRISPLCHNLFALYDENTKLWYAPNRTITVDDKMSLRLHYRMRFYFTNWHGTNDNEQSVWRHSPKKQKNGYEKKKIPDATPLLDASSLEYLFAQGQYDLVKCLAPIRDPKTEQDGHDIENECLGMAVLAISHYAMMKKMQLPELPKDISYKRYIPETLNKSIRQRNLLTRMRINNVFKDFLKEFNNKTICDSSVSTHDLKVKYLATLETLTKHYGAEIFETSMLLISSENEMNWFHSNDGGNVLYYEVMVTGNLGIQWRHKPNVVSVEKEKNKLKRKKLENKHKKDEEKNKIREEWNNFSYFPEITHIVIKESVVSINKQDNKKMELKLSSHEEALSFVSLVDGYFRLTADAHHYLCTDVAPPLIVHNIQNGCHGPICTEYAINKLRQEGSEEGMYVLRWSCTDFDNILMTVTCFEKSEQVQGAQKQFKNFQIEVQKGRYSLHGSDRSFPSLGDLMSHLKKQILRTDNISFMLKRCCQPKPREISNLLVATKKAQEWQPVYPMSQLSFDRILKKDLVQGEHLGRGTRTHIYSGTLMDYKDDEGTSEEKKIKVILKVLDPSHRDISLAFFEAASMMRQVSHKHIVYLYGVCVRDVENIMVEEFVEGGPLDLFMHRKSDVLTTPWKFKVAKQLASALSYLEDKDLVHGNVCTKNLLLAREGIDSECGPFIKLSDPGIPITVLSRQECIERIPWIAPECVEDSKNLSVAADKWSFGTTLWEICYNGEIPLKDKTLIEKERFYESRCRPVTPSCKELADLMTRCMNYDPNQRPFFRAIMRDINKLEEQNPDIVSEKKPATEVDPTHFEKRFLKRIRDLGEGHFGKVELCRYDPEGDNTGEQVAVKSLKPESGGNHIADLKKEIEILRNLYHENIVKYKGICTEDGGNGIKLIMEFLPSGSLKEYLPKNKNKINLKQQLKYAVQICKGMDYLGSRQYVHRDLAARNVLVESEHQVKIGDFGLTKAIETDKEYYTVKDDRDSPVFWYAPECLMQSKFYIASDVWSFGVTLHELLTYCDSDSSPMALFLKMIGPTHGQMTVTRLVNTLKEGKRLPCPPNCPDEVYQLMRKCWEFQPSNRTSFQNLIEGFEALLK

| SMILES | JAK 1 (pKi) [1] | JAK 2 (pKi) [2] | Tall-1 (pIC50) [3, 6] | JAK 3 (pKi) [4] | JAK3 (pKi)-JAK1 (pKi) [4, 7] | Tyk 2 (pKi) [5] | Ki [1] [nM] | Ki [2] [nM] | IC50 [3, 8] [nM] | Ki [4] [nM] | Ki [5] [nM] | IC50 ([3]; TALL-1, IL-2 stimulated pSTAT5, Tall-1 T cells) [nM] | JAK3 (pKi)-JAK1 (pKi) [4, 9] | Tall-1 (pIC50) [3, 10] |
| --- | --- | --- | --- | --- | --- | --- | --- | --- | --- | --- | --- | --- | --- | --- |
| CCC1(COc2cc(-c3ccc(O)c(F)c3)cc3[nH]ncc23)CN(C(=O)/C=C/CN(C)C)C1 [Compound 3-17] | E (a pKi value of 7 or below (Ki of 100 nM or above)) | D (a pKi value between 7 and 8 (Ki between 100 nM and 10 nM)) | A (a pIC50 value≥7.5 (IC50≤32 nM)) | A (a pKi value≥10 (Ki≤0.1 nM)) | A (a value of 3 or above) | E (a pKi value of 7 or below (Ki of 100 nM or above)) | – | – | – | – | – | – | – | – |
| C=CC(=O)N1CC[C@H](Oc2nc(-c3ccc(O)c(F)c3)nc3[nH]nc(C)c23)C1 [Compound 1-38] | – | – | – | – | A (a value of 3 or above) | – | > 100 | > 100 | 31.6 to 200 | < 0.1 | > 100 | – | – | – |
| C=CC(=O)N1CCC(Sc2cc(-c3ccc(O)cc3)cc3[nH]ncc23)CC1 [Compound 12-4] | – | – | – | – | – | – | > 100 | > 100 | – | 0.1 to 1 | > 100 | 31.6 to 200 | A (a value of 3 or above) | – |
| CN(C)C/C=C/C(=O)N1CC(C)(Oc2cc(-c3ccc(O)c(Cl)c3)cc3[nH]ncc23)C1 [Compound 5-18] | E (a pKi value of 7 or below (Ki of 100 nM or above)) | E (a pKi value of 7 or below (Ki of 100 nM or above)) | – | A (a pKi value≥10 (Ki≤0.1 nM)) | – | E (a pKi value of 7 or below (Ki of 100 nM or above)) | – | – | – | – | – | – | A (a value of 3 or above) | A (a pIC50 value≥7.5 (IC50≤32 nM)) |
| C=CC(=O)N1CC[C@H](Oc2nc(-c3ccc(O)cc3)cc3[nH]nc(C)c23)C1 [Compound 1-34] | – | – | – | – | A (a value of 3 or above) | – | > 100 | 10 to 100 | < 31.6 | 0.1 to 1 | > 100 | – | – | – |
| C=CC(=O)N1CC(CC)(COc2cc(-c3ccc(O)c(Cl)c3)nc3[nH]ncc23)C1 [Compound 3-69] | E (a pKi value of 7 or below (Ki of 100 nM or above)) | E (a pKi value of 7 or below (Ki of 100 nM or above)) | B (a pIC50 value between 6.7 (included) and 7.5 (IC50 between 200 nM and 32 nM)) | A (a pKi value≥10 (Ki≤0.1 nM)) | A (a value of 3 or above) | E (a pKi value of 7 or below (Ki of 100 nM or above)) | – | – | – | – | – | – | – | – |
| CCC1(COc2cc(-c3ccc(O)cc3)cc3[nH]ncc23)CN(C(=O)/C=C/CN(C)C)C1 [Compound 3-13] | E (a pKi value of 7 or below (Ki of 100 nM or above)) | D (a pKi value between 7 and 8 (Ki between 100 nM and 10 nM)) | A (a pIC50 value≥7.5 (IC50≤32 nM)) | B (a pKi value between 9 and 10 (Ki between 1 nM and 0.1 nM)) | A (a value of 3 or above) | E (a pKi value of 7 or below (Ki of 100 nM or above)) | – | – | – | – | – | – | – | – |
| CN(C)C/C=C/C(=O)N1CC(Sc2cc(-c3ccc(O)cc3)cc3[nH]ncc23)C1 [Compound 12-51] | D (a pKi value between 7 and 8 (Ki between 100 nM and 10 nM)) | D (a pKi value between 7 and 8 (Ki between 100 nM and 10 nM)) | – | A (a pKi value≥10 (Ki≤0.1 nM)) | – | E (a pKi value of 7 or below (Ki of 100 nM or above)) | – | – | – | – | – | – | A (a value of 3 or above) | B (a pIC50 value between 6.7 (included) and 7.5 (IC50 between 200 nM and 32 nM)) |
| C=CC(=O)N1CC(CSc2cc(-c3ccc(O)c(Cl)c3)cc3[nH]ncc23)C1 [Compound 13-8] | E (a pKi value of 7 or below (Ki of 100 nM or above)) | E (a pKi value of 7 or below (Ki of 100 nM or above)) | – | B (a pKi value between 9 and 10 (Ki between 1 nM and 0.1 nM)) | – | E (a pKi value of 7 or below (Ki of 100 nM or above)) | – | – | – | – | – | – | A (a value of 3 or above) | A (a pIC50 value≥7.5 (IC50≤32 nM)) |
| CN(C)C/C=C/C(=O)N1CC(C)(Oc2cc(-c3ccc(O)c(F)c3)cc3[nH]ncc23)C1 [Compound 5-19] | E (a pKi value of 7 or below (Ki of 100 nM or above)) | E (a pKi value of 7 or below (Ki of 100 nM or above)) | – | B (a pKi value between 9 and 10 (Ki between 1 nM and 0.1 nM)) | – | E (a pKi value of 7 or below (Ki of 100 nM or above)) | – | – | – | – | – | – | A (a value of 3 or above) | B (a pIC50 value between 6.7 (included) and 7.5 (IC50 between 200 nM and 32 nM)) |
| C=CC(=O)N1CC(C#N)(COc2nc(-c3ccc(O)c(F)c3)nc3[nH]ncc23)C1 [Compound 3-110] | – | – | – | – | A (a value of 3 or above) | – | > 100 | > 100 | 31.6 to 200 | 0.1 to 1 | > 100 | – | – | – |
| C=CC(=O)N1CC(COc2cc(-c3ccc(O)c(F)c3)nc3[nH]ncc23)C1 [Compound 3-87] | – | – | – | – | A (a value of 3 or above) | – | > 100 | > 100 | 31.6 to 200 | 0.1 to 1 | > 100 | – | – | – |
| C=CC(=O)N1CC(F)(COc2cc(-c3ccc(O)c(Cl)c3)cc3[nH]ncc23)C1 [Compound 3-43] | E (a pKi value of 7 or below (Ki of 100 nM or above)) | D (a pKi value between 7 and 8 (Ki between 100 nM and 10 nM)) | A (a pIC50 value≥7.5 (IC50≤32 nM)) | B (a pKi value between 9 and 10 (Ki between 1 nM and 0.1 nM)) | A (a value of 3 or above) | E (a pKi value of 7 or below (Ki of 100 nM or above)) | – | – | – | – | – | – | – | – |
| C=CC(=O)N1CC(C#N)(COc2nc(-c3ccc(O)cc3)nc3[nH]ncc23)C1 [Compound 3-104] | – | – | – | – | A (a value of 3 or above) | – | > 100 | > 100 | < 31.6 | < 0.1 | > 100 | – | – | – |
